target: Serotonin 2 (5-HT2) receptor (Rattus norvegicus, UniProt P30994+P08909+P14842); assay: Binding affinity against 5-hydroxytryptamine 2 receptor of rat frontal cortex using [3H]ketanserin radioligand; type: tissue-based

Which Ki does the source give for `COc1cc(C(=O)O)c(OC)cc1CC(C)N.Cl` (centres undefined) here?
The Ki was greater than 50000 nM.

With `CCCCCCCCc1cc(OC)c(CC(C)N)cc1OC.Cl` (centres undefined) as the compound, how does the Ki read?
Its Ki is 3 nM.

Which Ki does the source give for `COc1cc(CC(C)N)c(OC)cc1Cc1ccccc1.Cl` (centres undefined) here?
The Ki was 7 nM.

For `COc1cc(CC(C)N)c(OC)cc1C#N.Cl` (centres undefined), which Ki is on record?
Its Ki is 2400 nM.

`CCC(=O)c1cc(OC)c(CC(C)N)cc1OC.Cl` (centres undefined) was tested. Which Ki did it give?
The Ki was 735 nM.

Which Ki does the source give for `CCCCCCc1cc(OC)c(CC(C)N)cc1OC.Cl` (centres undefined) here?
Its Ki is 2.5 nM.

`COc1cc(CC(C)N)c(OC)cc1CCCc1ccccc1.Cl` (centres undefined) was tested. Which Ki did it give?
Its Ki is 10 nM.

How did the Ki turn out when `CCCOC(=O)c1cc(OC)c(CC(C)N)cc1OC` (centres undefined) was run?
Its Ki is 2460 nM.

`COc1cc(C(=N)N)c(OC)cc1CC(C)N` (centres undefined) was tested. Which Ki did it give?
The Ki was 7 nM.

Which Ki does the source give for `CCCNC(=O)c1cc(OC)c(CC(C)N)cc1OC` (centres undefined) here?
The Ki was 7550 nM.

For `COc1cc(CC(C)N)c(OC)cc1I` (centres undefined), which Ki is on record?
Its Ki is 19 nM.

`COc1cc(CC(C)N)c(OC)cc1N` (centres undefined) was tested. Which Ki did it give?
The Ki was 26000 nM.

For `COc1cc(CC(C)N)c(OC)cc1Cl` (centres undefined), which Ki is on record?
The Ki was 218 nM.

Which Ki does the source give for `CCCCOC(=O)c1cc(OC)c(CC(C)N)cc1OC` (centres undefined) here?
The Ki was 1530 nM.

Which Ki does the source give for `CCCCc1cc(OC)c(CC(C)N)cc1OC` (centres undefined) here?
Its Ki is 58 nM.

With `CCOc1cc(OC)c(CC(C)N)cc1OC` (centres undefined) as the compound, how does the Ki read?
Its Ki is 2200 nM.

How did the Ki turn out when `COc1cc(C(C)C)c(OC)cc1CC(C)N` (centres undefined) was run?
The Ki was 76 nM.

For `COc1cc(C(C)(C)C)c(OC)cc1CC(C)N` (centres undefined), which Ki is on record?
The Ki was 19 nM.

With `COc1cc(CC(C)N)c(OC)cc1O` (centres undefined) as the compound, how does the Ki read?
Its Ki is greater than 50000 nM.

From ChEMBL document CHEMBL1124715 (J Med Chem, 1990)
